# What was measured:
# MdNCR1b [1] = test: product formation assay, varied naringenin chalcone […]; assay type: biochemical, Malus domestica; settings: 400 µM NADPH, Bis-Tris propane 0.1 M, pH 3.0, 30 °C, 30 min; read-out: Km (apparent)
# MdNCR1b [2] = test: product formation assay, varied NADPH […]; assay type: biochemical, Malus domestica; settings: 100 µM naringenin chalcone, Bis-Tris propane 0.1 M, pH 3.0, 30 °C, 30 min
Km (MdNCR1b [1]),Km (MdNCR1b [2]),Compound
9.9 ± 2.6 µM,–,"O=C(/C=C/c1ccc(O)cc1)c1c(O)cc(O)cc1O [compound 1, 2ʹ,4,4ʹ,6ʹ-tetrahydroxychalcone]"
–,23.1 ± 9.4 µM,NC(=O)C1=CN([C@@H]2O[C@H](COP(=O)(O)OP(=O)(O)OC[C@H]3O[C@@H](n4cnc5c(N)ncnc54)[C@H](OP(=O)(O)O)[C@@H]3O)[C@@H](O)[C@H]2O)C=CC1 [NADPH]
